Experimental data from the OPERA property sets (Mansouri et al. 2018).

Settings: for log10 BCF / log10 biotransformation half-life (days): fish

Structure (SMILES) | melting point [°C] | boiling point [°C] | also measured
Clc1cccc2c1Oc1ccccc1O2 | 104 | – | log10 vapour pressure (mmHg): -4.05
CCOC(=O)C(F)(F)F | – | 61 | –
CC1=CC(=O)NS(=O)(=O)O1 | 123 | – | –
Brc1ccc(Oc2ccc(Br)cc2)cc1 | 60.5 | 339 | log10 Koa: 8.64
C=CCOC(=O)/C=C\C(=O)OCC=C | – | – | log10 vapour pressure (mmHg): -2.17
O=[N+]([O-])c1cc(C(F)(F)F)c(Cl)c([N+](=O)[O-])c1Nc1ncc(C(F)(F)F)cc1Cl | 113 | – | –
CN(C(=O)Cl)c1ccccc1 | 88.5 | 280 | –
Nc1ccc([N+](=O)[O-])cn1 | 187 | – | –
CC(C)N(C(=O)CCl)c1ccccc1 | 77 | – | log10 Koc (L/kg): 2.42; log10 vapour pressure (mmHg): -3.64
CC(C)(C)CC(C)(C)c1ccc(OCCOCC[N+](C)(C)Cc2ccccc2)cc1 | – | – | ready biodegradability: not readily biodegradable
CN(C)c1ccc(C(=O)O)cc1 | 242 | – | –
COc1cccc(N)c1 | -1 | 251 | log10 vapour pressure (mmHg): -1.12; ready biodegradability: not readily biodegradable
CCCCCCCCCCCCCCCCCCNC | 44 | – | –
c1ccc(N(CC2CO2)CC2CO2)cc1 (stereo not drawn) | – | – | ready biodegradability: not readily biodegradable
ICCCCI | 5.8 | – | –
C=CC(Cl)(Cl)Cl | -30 | 114 | –
CC(=O)OC(OC(C)=O)c1ccccc1 | 46 | 220 | –
CCCC(C)CCC | -121 | 118 | log10 biodegradation half-life (days): 0.602; log10 vapour pressure (mmHg): 1.31
COc1ccc2c(c1)C(=O)c1ccccc1C2=O | – | – | log10 vapour pressure (mmHg): -10.2
CN1CCCC1=O | -24 | 202 | log10 Henry constant (atm·m³/mol): -8.49; log10 vapour pressure (mmHg): -0.462; ready biodegradability: readily biodegradable
Cc1cc(C)n(C)n1 | – | 170 | –
CCOc1cccc([N+](=O)[O-])c1 | 36 | 264 | –
CCCC(C)CCN (stereo not drawn) | – | 149 | –
FC(F)(F)C(F)(F)C(F)(F)C(F)(F)C(F)(F)I | -50 | 94.4 | –

Structure (SMILES) | melting point [°C] | boiling point [°C] | also measured
O=C(CS)Nc1ccc2ccccc2c1 | 112 | – | –
FC(F)(F)C#CC(F)(F)F | -117 | -24.6 | –
CN(C)C#N | – | 164 | –
CCOP(=O)(NC(C)C)Oc1ccc(S(C)(=O)=O)c(C)c1 (stereo not drawn) | – | – | log10 Koc (L/kg): 1.64
CNCCNC | – | 120 | –
c1ccc2sc(SSN3CCOCC3)nc2c1 | 135 | – | –
CC(C)(O)C(C)(C)O | 43 | – | –
C=CC[Si](Cl)(Cl)CC=C | – | – | log10 vapour pressure (mmHg): 0.445
CCC(C)C(C)C(C)C (stereo not drawn) | – | 139 | log10 vapour pressure (mmHg): 0.955
Brc1ccc(Br)c(Br)c1 | 44.5 | 275 | log10 BCF: 3.63
O=C(O)Cc1ccc(F)cc1 | 86 | – | –
N#CCCC[Si](Cl)(Cl)Cl | – | 238 | –
O=C(O)c1cccc(Cl)n1 | – | – | log10 Koc (L/kg): 1.37; ready biodegradability: not readily biodegradable
CCCCCCC(=O)OCC | -66.1 | 187 | log10 Henry constant (atm·m³/mol): -3.3; log10 Koc (L/kg): 2.61; log10 vapour pressure (mmHg): -0.168
CC(C)(CO)Cc1ccccc1 | 34.5 | – | –
CC(=O)c1ccc([N+](=O)[O-])cc1 | 81.8 | – | –
CC(/C=C\c1ccccc1)c1ccccc1 (stereo not drawn) | 47.5 | 311 | –
N#Cc1ccccc1N | 51 | 263 | –
Clc1ccc(Cl)c(-c2cc(Cl)c(Cl)c(Cl)c2Cl)c1 | – | – | log10 Henry constant (atm·m³/mol): -4.64
OCCOCCOCCOCCO | – | 328 | log10 vapour pressure (mmHg): -4.33
CC(=O)Nc1nc(=O)c2ncn(COCCOC(C)=O)c2[nH]1 | 204 | – | –
Cc1cc(C)c(C=O)c(C)c1 | 14 | 238 | –
COc1ccc(CCN2CCC(Nc3nc4ccccc4n3Cc3ccc(F)cc3)CC2)cc1 | 149 | – | –
CCCB(CCC)CCC | -56 | 159 | –

Structure (SMILES) | melting point [°C] | boiling point [°C] | also measured
CC(C)(C(=O)O)n1nnc2ccccc21 | 182 | – | –
[Br-].[Br-].c1cc[n+]2c(c1)-c1cccc[n+]1CC2 | 337 | – | –
C[C@]12CCC(=O)C=C1CC[C@@H]1[C@@H]2CC[C@@]2(C)[C@H]1CC[C@]2(O)C(=O)CO | 215 | – | –
CC(=O)c1cccc(C#N)c1 | 99 | – | –
Cc1ccc(NCc2ccccc2)cc1 | 19.5 | 319 | –
NS(=O)(=O)c1ccc(S(=O)(=O)CCCCO)cc1 | 134 | – | –
c1ccc(-n2ccnc2)cc1 | 13 | 276 | –
COc1ccccc1[N+](=O)[O-] | 10.5 | 277 | log10 vapour pressure (mmHg): -2.44; ready biodegradability: not readily biodegradable; log10 BCF: 0.7; log10 biotransformation half-life (days): -1.04
COc1cc(C)oc(=O)c1 | 86 | – | –
CCOc1cc(OCC)c(C(=O)CCC(=O)O)cc1OCC | 150 | – | –
C/C=C(\C)C(=O)OCC | – | 156 | –
Cc1c(C)c2c3ccccc3ccc2c2ccccc12 | 129 | – | –
ClC=CBr | -86.7 | 84.6 | –
CC1CCCCC1NC(=O)Nc1ccccc1 (stereo not drawn) | 136 | – | log10 Koc (L/kg): 2.31; log10 vapour pressure (mmHg): -8.4
CC(C)CCCCCCC=O | – | 197 | –
COC(=O)c1ccccc1S(=O)(=O)NC(=O)Nc1nc(C)nc(OC)n1 | 162 | – | log10 Koc (L/kg): 1.54
CC(=O)N1CCCCC1 | -13.4 | 226 | –
S=c1sccs1 | 49 | – | –
Cc1ccccc1NC(=N)NC(=N)N | 144 | – | –
COC(=O)C(F)(F)C(F)(F)F | – | 59.5 | –
CC(=O)NC(=O)NC(C)=O | 154 | – | –
Nc1ccc(Cl)cc1 | 72.5 | 232 | log10 Koc (L/kg): 1.96; log10 vapour pressure (mmHg): -1.57; ready biodegradability: not readily biodegradable; log10 BCF: 0.84; log10 biotransformation half-life (days): -0.61
C=CC(C)(C)C | -115 | 41.2 | log10 vapour pressure (mmHg): 2.63
Fc1ccc(N=C=S)cc1 | 27 | 228 | –

Structure (SMILES) | melting point [°C] | boiling point [°C] | also measured
CCCc1cccc(CCC)c1O | 27 | 256 | –
CC1C(=O)CC2CC1C2(C)C (stereo not drawn) | – | 212 | –
CCCCCCCCC=CCCCCCCCC(=O)OCCS(=O)(=O)[O][Na] | – | – | ready biodegradability: readily biodegradable
CCCC(=O)Nc1ccc(OCC(O)CNC(C)C)c(C(C)=O)c1 (stereo not drawn) | 121 | – | –
CCC(C)c1ccc(N)cc1 (stereo not drawn) | – | 238 | –
C=COC(C)C | -140 | 55.5 | –
Nc1ccc(/N=N/c2ccc(N)cc2)cc1 | 250 | – | –
CC(=O)OC[C@H]([C@H](OC(C)=O)c1ccccc1)[N+](=O)[O-] | 70 | – | –
BrCc1ccc(Br)cc1 | 63 | – | –
CCN(CCO)CCn1c(Cc2ccccc2)nc2c1c(=O)n(C)c(=O)n2C | 80 | – | –
Cl[Si](Cl)(Cl)c1ccccc1 | – | 201 | log10 vapour pressure (mmHg): -0.371
COc1ccc(Nc2ccc(OC)cc2)cc1 | – | – | ready biodegradability: not readily biodegradable
O=C(O)CNC(CO)(CO)CO | 187 | – | –
CC(C)(C)C1CCC(O)CC1 (stereo not drawn) | 66 | – | log10 vapour pressure (mmHg): -1.15
CCCCC(C)CC(C)C (stereo not drawn) | – | 156 | –
c1ccc(C2=NNCC2)cc1 | 45.8 | – | –
Fc1ccc(Br)cc1 | -17.4 | 152 | –
O=C(NC(=O)c1c(F)cccc1F)Nc1ccc(Cl)c(Oc2ncc(C(F)(F)F)cc2Cl)c1 | – | – | log10 vapour pressure (mmHg): -12
CCOC(=O)[C@H](CCc1ccccc1)N[C@H]1CCc2ccccc2N(CC(=O)O)C1=O | 148 | – | –
N#Cc1cc(I)c([O-])c(I)c1.[Na+] | 360 | – | –
Cc1c(Cl)c(Cl)cc(Cl)c1Cl | 93.5 | – | –
